For one experiment, the system named is endogenous TFEB. In words: TFEB nuclear translocation, immunocytochemistry high-content imaging. The settings on record: PKIS2 primary screening. Type of experiment: cell-based.
The next experiment has as its target T1, ACVR1B (Homo sapiens, UniProt P36896).
T1 sequence (P36896 24-505): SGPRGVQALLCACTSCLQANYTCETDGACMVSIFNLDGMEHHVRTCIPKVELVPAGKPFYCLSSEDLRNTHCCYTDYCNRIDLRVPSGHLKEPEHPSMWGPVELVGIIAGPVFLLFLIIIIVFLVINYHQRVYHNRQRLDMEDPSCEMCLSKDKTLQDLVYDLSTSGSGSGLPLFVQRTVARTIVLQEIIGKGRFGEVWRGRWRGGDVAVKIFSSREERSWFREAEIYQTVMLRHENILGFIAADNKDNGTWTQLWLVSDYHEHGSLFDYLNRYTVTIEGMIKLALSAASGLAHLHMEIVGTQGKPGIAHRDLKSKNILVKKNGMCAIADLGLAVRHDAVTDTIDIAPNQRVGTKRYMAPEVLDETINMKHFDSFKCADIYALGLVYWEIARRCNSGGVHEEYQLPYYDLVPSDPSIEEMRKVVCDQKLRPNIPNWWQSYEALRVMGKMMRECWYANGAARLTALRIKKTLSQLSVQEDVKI
The conditions noted are these: cited from earlier work.

Another experiment has as its system SH-SY5Y cells. The conditions noted are these: PKIS2 primary screening. Note: reference of the scale not given here.
The target in the next experiment is CDC42BPG/DMPK2 (Homo sapiens, UniProt Q6DT37). The conditions noted are these: cited from earlier work.
CDC42BPG/DMPK2, sequence (Q6DT37 whole entry): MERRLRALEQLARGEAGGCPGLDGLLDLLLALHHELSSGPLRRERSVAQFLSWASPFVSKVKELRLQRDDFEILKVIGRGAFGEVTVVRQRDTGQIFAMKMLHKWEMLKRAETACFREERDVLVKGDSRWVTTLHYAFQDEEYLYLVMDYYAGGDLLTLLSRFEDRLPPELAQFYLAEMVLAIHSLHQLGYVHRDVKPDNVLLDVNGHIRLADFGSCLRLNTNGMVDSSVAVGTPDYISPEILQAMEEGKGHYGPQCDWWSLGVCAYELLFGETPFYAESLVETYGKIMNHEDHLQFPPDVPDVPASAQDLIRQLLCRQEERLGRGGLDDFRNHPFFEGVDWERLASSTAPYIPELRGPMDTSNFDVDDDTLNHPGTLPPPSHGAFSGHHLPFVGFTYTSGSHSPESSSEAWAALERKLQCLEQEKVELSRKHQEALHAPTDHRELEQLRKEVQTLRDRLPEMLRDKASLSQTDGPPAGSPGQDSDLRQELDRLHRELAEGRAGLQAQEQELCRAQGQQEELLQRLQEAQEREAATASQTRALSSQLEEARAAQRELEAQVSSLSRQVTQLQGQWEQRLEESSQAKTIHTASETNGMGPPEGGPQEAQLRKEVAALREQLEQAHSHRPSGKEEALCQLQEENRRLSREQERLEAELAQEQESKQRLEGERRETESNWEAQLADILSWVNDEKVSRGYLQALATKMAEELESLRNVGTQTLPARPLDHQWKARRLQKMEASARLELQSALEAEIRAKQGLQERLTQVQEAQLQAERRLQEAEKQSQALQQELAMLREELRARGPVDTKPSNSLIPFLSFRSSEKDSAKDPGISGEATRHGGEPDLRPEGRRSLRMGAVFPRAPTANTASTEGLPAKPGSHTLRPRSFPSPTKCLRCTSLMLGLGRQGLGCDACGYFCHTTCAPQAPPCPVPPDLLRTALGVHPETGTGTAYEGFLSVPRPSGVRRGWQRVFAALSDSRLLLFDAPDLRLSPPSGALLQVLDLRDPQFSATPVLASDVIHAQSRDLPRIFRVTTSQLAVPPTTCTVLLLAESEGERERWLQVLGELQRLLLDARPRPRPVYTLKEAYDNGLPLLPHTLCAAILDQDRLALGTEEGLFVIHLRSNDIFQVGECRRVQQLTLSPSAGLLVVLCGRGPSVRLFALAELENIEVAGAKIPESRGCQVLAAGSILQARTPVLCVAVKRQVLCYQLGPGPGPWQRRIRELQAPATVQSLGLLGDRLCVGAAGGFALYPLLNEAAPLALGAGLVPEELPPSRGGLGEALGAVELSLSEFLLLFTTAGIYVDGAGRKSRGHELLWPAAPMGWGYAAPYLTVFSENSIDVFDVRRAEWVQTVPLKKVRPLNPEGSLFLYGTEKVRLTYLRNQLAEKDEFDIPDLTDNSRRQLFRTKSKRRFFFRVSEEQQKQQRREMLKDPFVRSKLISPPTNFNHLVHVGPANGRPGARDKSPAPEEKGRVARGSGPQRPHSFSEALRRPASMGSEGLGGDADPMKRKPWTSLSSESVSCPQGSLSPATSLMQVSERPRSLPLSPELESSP
In another experiment the target is CDC42BPB/MRCKB (Homo sapiens, UniProt Q9Y5S2). The conditions noted are these: cited from earlier work.
CDC42BPB/MRCKB, sequence (Q9Y5S2 whole entry): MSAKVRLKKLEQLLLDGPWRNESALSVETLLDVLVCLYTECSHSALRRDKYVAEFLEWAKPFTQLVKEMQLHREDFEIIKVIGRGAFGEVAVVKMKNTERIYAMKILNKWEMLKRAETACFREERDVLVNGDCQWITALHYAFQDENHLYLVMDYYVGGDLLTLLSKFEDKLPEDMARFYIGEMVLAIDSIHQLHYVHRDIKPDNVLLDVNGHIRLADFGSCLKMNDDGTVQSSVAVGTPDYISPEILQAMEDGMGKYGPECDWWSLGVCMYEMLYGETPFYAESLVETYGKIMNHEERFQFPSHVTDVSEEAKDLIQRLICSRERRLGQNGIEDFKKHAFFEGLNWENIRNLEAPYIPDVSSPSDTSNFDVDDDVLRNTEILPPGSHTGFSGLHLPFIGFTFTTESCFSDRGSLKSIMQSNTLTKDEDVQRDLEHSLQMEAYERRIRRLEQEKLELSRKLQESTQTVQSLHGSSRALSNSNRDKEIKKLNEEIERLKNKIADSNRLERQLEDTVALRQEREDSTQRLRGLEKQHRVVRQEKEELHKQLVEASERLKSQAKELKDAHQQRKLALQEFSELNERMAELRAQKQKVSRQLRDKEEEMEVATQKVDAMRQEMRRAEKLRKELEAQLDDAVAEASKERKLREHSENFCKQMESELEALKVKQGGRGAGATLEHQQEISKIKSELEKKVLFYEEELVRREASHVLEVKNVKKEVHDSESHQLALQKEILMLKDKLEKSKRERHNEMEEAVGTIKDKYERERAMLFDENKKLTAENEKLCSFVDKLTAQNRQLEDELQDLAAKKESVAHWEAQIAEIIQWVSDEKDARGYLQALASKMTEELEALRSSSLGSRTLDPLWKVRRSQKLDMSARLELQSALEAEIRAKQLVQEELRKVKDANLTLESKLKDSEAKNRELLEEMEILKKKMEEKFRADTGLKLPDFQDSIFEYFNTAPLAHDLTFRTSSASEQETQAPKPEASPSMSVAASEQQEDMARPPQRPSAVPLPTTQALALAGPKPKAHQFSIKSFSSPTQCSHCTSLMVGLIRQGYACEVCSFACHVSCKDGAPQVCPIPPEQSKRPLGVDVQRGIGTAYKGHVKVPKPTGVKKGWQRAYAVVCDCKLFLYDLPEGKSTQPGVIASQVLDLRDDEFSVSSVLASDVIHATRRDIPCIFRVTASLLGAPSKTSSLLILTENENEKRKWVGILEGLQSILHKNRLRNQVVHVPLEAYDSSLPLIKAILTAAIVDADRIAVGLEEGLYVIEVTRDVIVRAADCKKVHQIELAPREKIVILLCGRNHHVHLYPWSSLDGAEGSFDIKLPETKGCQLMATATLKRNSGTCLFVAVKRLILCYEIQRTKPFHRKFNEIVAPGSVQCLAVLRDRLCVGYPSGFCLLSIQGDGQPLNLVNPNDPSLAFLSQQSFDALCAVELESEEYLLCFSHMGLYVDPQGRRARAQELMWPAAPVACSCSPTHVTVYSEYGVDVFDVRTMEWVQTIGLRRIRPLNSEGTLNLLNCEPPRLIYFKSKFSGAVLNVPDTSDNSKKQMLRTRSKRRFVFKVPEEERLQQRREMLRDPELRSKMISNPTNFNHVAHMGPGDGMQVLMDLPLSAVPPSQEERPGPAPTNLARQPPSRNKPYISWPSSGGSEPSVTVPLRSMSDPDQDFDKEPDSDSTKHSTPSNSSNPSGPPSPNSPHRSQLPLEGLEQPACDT
A further experiment deals with T2, PRKD3 (Homo sapiens, UniProt O94806).
T2 sequence (O94806 1-890): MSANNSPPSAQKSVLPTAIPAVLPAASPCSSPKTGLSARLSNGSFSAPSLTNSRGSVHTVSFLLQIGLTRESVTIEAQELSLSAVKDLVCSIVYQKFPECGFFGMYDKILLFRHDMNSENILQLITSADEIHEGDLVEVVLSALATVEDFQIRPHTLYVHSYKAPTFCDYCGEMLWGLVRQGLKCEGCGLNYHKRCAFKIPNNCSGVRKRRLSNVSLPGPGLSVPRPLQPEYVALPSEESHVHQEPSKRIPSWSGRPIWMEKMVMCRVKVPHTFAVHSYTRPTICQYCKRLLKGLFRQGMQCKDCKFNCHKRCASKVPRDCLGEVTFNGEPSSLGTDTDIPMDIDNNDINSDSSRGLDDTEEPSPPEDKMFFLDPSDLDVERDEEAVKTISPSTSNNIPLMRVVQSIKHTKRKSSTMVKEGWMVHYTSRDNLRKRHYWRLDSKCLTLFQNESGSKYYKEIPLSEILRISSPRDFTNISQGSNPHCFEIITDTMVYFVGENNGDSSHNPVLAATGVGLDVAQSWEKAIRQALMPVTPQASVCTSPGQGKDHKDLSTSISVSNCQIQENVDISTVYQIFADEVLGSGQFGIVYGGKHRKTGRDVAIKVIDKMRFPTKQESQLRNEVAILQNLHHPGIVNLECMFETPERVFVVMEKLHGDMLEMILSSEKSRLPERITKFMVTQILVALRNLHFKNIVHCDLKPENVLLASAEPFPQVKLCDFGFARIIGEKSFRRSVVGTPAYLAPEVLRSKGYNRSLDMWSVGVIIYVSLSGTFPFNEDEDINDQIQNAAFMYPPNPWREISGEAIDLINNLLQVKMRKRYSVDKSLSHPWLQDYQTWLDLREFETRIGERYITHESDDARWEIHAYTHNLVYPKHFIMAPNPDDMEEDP
The settings on record: cited from earlier work.

The target in the next experiment is T3, PRKD2 (Homo sapiens, UniProt Q9BZL6).
T3 sequence (Q9BZL6 1-878): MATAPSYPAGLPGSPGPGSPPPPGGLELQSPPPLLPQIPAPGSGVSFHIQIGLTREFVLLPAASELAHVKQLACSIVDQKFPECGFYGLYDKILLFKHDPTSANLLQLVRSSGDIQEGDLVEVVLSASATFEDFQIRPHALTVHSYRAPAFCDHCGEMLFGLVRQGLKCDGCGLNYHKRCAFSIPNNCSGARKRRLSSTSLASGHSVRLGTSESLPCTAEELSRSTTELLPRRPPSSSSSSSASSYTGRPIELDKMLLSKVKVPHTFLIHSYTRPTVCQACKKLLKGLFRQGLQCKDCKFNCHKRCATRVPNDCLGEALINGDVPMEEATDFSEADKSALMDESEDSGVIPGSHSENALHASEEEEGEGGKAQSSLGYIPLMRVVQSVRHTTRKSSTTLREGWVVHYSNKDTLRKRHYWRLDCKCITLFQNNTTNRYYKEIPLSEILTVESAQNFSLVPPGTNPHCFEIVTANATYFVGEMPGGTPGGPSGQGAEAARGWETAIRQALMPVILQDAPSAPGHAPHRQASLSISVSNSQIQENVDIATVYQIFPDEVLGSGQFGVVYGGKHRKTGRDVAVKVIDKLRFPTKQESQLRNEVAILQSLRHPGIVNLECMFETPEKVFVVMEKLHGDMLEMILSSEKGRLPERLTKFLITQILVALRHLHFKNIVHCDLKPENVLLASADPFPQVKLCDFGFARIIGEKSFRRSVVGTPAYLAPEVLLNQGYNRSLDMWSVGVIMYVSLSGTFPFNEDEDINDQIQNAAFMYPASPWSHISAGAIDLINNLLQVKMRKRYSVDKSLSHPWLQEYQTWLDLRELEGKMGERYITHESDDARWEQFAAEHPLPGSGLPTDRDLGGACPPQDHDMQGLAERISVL
The conditions noted are these: cited from earlier work.

The target of another experiment is CSNK1E (Homo sapiens, UniProt P49674). The conditions noted are these: cited from earlier work.
CSNK1E, sequence (P49674 whole entry): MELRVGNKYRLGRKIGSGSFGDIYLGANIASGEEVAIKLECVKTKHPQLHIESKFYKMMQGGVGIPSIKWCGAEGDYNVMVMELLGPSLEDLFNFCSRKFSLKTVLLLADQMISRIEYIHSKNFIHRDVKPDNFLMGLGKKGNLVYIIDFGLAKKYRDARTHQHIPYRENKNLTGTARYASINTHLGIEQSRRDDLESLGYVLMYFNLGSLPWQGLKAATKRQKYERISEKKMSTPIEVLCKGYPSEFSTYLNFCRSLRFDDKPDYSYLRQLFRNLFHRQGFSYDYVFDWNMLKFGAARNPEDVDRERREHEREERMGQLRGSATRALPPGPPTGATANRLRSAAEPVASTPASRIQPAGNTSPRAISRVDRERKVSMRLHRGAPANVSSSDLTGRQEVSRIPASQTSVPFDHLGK
The next experiment deals with PIKFYVE (Homo sapiens, UniProt Q9Y2I7). The conditions noted are these: cited from earlier work.
Another experiment relates to endogenous TFE3. In words: TFE3 nuclear translocation, immunocytochemistry high-content imaging. Type of experiment: cell-based.
The target of a further experiment is T4, JAK1(JH2) (Homo sapiens, UniProt P23458).
T4 construct: JAK1(JH2)
T4 sequence (P23458 583-855 limits assumed): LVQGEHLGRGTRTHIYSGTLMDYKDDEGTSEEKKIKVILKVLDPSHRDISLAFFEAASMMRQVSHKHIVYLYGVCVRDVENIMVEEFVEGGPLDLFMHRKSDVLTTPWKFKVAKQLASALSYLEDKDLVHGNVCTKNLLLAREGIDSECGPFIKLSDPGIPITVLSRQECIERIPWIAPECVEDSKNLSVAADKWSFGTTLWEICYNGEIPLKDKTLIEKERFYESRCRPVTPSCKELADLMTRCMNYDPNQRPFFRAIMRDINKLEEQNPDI
The settings on record: cited from earlier work.

Text for SH-SY5Y cells: The PKIS2 Library was supplied by The Structural Genomics Consortium at the University of North Carolina at Chapel Hill.

With `Cc1cccc(-c2nc(Nc3ccc4c(cnn4C)c3)c3ccccc3n2)n1` [GW876731], the TFEB % in the experiment with endogenous TFEB is 18.65%. Further, on ACVR1B, the “KINOMEscan binding ACVR1B” value is 64%. In the experiment on SH-SY5Y cells (DQ Red BSA intensity), the “DQ Intensity” value came to 96.16. Besides, in the experiment with SH-SY5Y cells (DQ Red BSA spot count), the “DQ Spot” value is 100.57. In addition, at CDC42BPG/DMPK2, the “KINOMEscan binding CDC42BPG/DMPK2” value is 22%. Further, the “KINOMEscan binding CDC42BPB/MRCKB” value on CDC42BPB/MRCKB is 34%. In addition, the “KINOMEscan binding PRKD3” value on PRKD3 was 90.2%. Moreover, the “KINOMEscan binding PRKD2” value at PRKD2 is recorded as 99.6%. On CSNK1E, the “KINOMEscan binding CSNK1E” value was 37%. At PIKFYVE, the “KINOMEscan binding PIKFYVE” value is listed as 91.5%. The compound further showed a TFE3 % with endogenous TFE3 (PKIS2 primary screening) of 20.31%. The nTFE3 % with endogenous TFE3 (primary screen, 1 µM, 24 h, SH-SY5Y) worked out at 20.3%. Further, the “KINOMEscan binding JAK1(JH2)” value at JAK1(JH2) is reported as 16%.

The record behind these values is publication PMC9851200, “Multiparameter phenotypic screening for endogenous TFEB and TFE3 translocation identifies novel chemical series modulating lysosome function” (Autophagy, 2022).
